Here are results for nine compounds from EP4667451A1, “PESTICIDALLY-ACTIVE 2,2-DIHALOCYCLOPROPYL COMPOUNDS” (Syngenta Crop Protection AG, priority 2024, dated 2025).

Format in all cases: in vivo
Series [1] has as its system Myzus persicae (Green peach aphid). Kind of series: Myzus persicae (Green peach aphid) systemic activity, pea seedling roots in test solution. The following applies: 144 h, test rate of 24 ppm, assessed 6 days after placing seedlings into test solutions. The protocol: Myzus persicae (Green peach aphid) Systemic activity
Roots of pea seedlings infested with an aphid population of mixed ages were placed directly into aqueous test solutions prepared from 10,000 DMSO stock solutions. The samples were assessed for mortality 6 days after placing seedlings into test solutions.

The test system is the same in series [2]. Kind of series: Myzus persicae (Green peach aphid) feeding/contact activity, sprayed eggplant leaf discs. The settings on record: application rate of 200 ppm, assessed 6 days after infestation. As for the experimental part: Myzus persicae (Green peach aphid) Feeding/Contact activity Eggplant leaf discs were placed onto agar in a 24-well microtiter plate and sprayed with aqueous test solutions prepared from 10,000 ppm DMSO stock solutions. After drying, the leaf discs were infested with an aphid population of mixed ages. The samples were assessed for mortality 6 days after infestation.

The test system is the same in series [3]. Kind of series: Myzus persicae (Green peach aphid) intrinsic activity, sucrose solution feeding through Parafilm. The settings on record: test rate of 12 ppm, assessed 5 days after infestation; for mortality at 12 ppm: Myzus persicae, 120 h. The text has this: Myzus persicae (Green peach aphid) Intrinsic activity
Test compounds prepared from 10,000 ppm DMSO stock solutions were applied by pipette into 24-well microtiter plates and mixed with sucrose solution. The plates were closed with a stretched Parafilm. A plastic stencil with 24 holes was placed onto the plate and infested pea seedlings were placed directly on the Parafilm. The infested plate was closed with a gel blotting paper and another plastic stencil and then turned upside down. The samples were assessed for mortality 5 days after infestation.

For series [4], the system named is Aphis craccivora (Black bean aphid). Kind of series: Aphis craccivora (Black bean aphid), mixed population, systemic/feeding, pea seedlings in test solutions. The following applies: 120 h, application rate of 24 ppm, assessed 5 days later, read-out: growth inhibition. The protocol: Aphis craccivora (Black bean aphid), mixed population, systemic/feeding Pea seedlings infested with mixed aged aphid population, were put into glass vials with test solutions. 5 days later, samples were assessed for mortality.

The compound `O=C(NCCCCCCC1CC1(F)Br)c1ccccc1` (stereo not shown) [Compound A4, N-[6-(2-bromo-2-fluoro-cyclopropyl)hexyl]benzamide] displayed a mortality at 24 ppm in series [1] of at least 80%. Consider `O=C(NCCCCC1CC1(F)Br)C1CC1` (stereo not shown) [Compound A24, N-[4-(2-bromo-2-fluoro-cyclopropyl)butyl]cyclopropanecarboxamide], for which the inhibition at 200 ppm in series [2] (Myzus persicae, foliar, 144 h, read-out: growth inhibition) is at least 80%. As for `O=C(NCCCCC1CC1(F)Br)N1CCCCC1` (stereo not shown) [Compound A43, N-[4-(2-bromo-2-fluoro-cyclopropyl)butyl]piperidine-1-carboxamide], the mortality at 12 ppm in series [3] was at least 80%.

Regarding `O=C(OCCCCCCC1CC1(F)Br)c1ccccc1` (stereo not shown) [Compound A8, 6-(2-bromo-2-fluoro-cyclopropyl)hexyl benzoate], in series [4], the inhibition at 24 ppm is at least 80%. In the case of “N-[4-(2-bromo-2-fluoro-cyclopropyl)butyl]-6-methyl-pyridine-3-sulfonamide [Compound A10]”, the growth inhibition entry in series [2] is listed as “at least 80%”.

On to “N-[4-(2-bromo-2-fluoro-cyclopropyl)butyl]-2,3-dihydro-1,4-benzodioxine-5-sulfonamide [Compound A27]”, for which the growth inhibition result in series [2] was “at least 80%”. Turning to `OCCCCC1CC1(F)Br` (stereo not shown) [Compound A9, 4-(2-bromo-2-fluoro-cyclopropyl)butan-1-ol], the mortality at 12 ppm in series [3] is at least 80%. In series [4], the inhibition at 24 ppm is at least 80%. With `OCCCCCCC1CC1(F)Br` (stereo not shown) [Compound A7, 6-(2-bromo-2-fluoro-cyclopropyl)hexan-1-ol], in series [4], the inhibition at 24 ppm was at least 80%. Turning to “N-[4-(2-bromo-2-fluoro-cyclopropyl)butyl]-3,5-dimethyl-isoxazole-4-sulfonamide [Compound A11]”, in series [3], the mortality entry is “at least 80%”.
